PubChem BioAssay AID1918937 (Molecular Pharmacology Branch, DTP, NCI, 2023)

Test system: 521955-158-R2-J5-PDC complex spheroid viability
Assay: Anticancer human tumor 521955-158-R2-J5-PDC patient-derived pancreatic carcinoma cell line growth inhibition
Details: for IC50: curve of first compound; for viability, T/C: stronger effect = lower value
Method in brief: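 Multicellular complex spheroids of tumor cells with human endothelial cells (HUVEC) and mesenchymal stem cells; the LSD1 inhibitor iadademstat was combined with standard-of-care or investigational agents. Top concentration at or near clinical Cmax, half-log dilutions; final DMSO ≤0.25%.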

[1] = second compound 0.1 µM, first compound 0.0316 µM
[2] = second compound 0.1 µM, first compound 0.1 µM
[3] = second compound 0.1 µM, first compound 0.316 µM
[4] = second compound 0.1 µM, first compound 1 µM
[5] = second compound 0.1 µM, first compound 3.16 µM
[6] = second compound 0.1 µM, first compound 10 µM
[7] = second compound 0.316 µM, first compound 0.0316 µM
[8] = second compound 0.316 µM, first compound 0.1 µM
[9] = second compound 0.316 µM, first compound 0.316 µM
[10] = second compound 0.316 µM, first compound 1 µM
[11] = second compound 0.316 µM, first compound 3.16 µM
[12] = second compound 0.316 µM, first compound 10 µM
[13] = second compound 1 µM, first compound 0.0316 µM
[14] = second compound 1 µM, first compound 0.1 µM
[15] = second compound 1 µM, first compound 0.316 µM
[16] = second compound 1 µM, first compound 1 µM
[17] = second compound 1 µM, first compound 3.16 µM
[18] = second compound 1 µM, first compound 10 µM
[19] = second compound 3.16 µM, first compound 0.0316 µM
[20] = second compound 3.16 µM, first compound 0.1 µM
[21] = second compound 3.16 µM, first compound 0.316 µM
[22] = second compound 3.16 µM, first compound 1 µM
[23] = second compound 3.16 µM, first compound 3.16 µM
[24] = second compound 3.16 µM, first compound 10 µM
[25] = second compound 10 µM, first compound 0.0316 µM
[26] = second compound 10 µM, first compound 0.1 µM
[27] = second compound 10 µM, first compound 0.316 µM
[28] = second compound 10 µM, first compound 1 µM
[29] = second compound 10 µM, first compound 3.16 µM
[30] = second compound 10 µM, first compound 10 µM
[31] = second compound 0.1 µM, first compound 0.00316 µM
[32] = second compound 0.1 µM, first compound 0.01 µM
[33] = second compound 0.316 µM, first compound 0.00316 µM
[34] = second compound 0.316 µM, first compound 0.01 µM
[35] = second compound 1 µM, first compound 0.00316 µM
[36] = second compound 1 µM, first compound 0.01 µM
[37] = second compound 3.16 µM, first compound 0.00316 µM
[38] = second compound 3.16 µM, first compound 0.01 µM
[39] = second compound 10 µM, first compound 0.00316 µM
[40] = second compound 10 µM, first compound 0.01 µM
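Also: spheroids exposed to agents for seven days.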
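For viability, T/C in this document: percent of DMSO vehicle control luminescence viability.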

CC(C)c1c(-c2ccccc2)nc2c(C#N)c[nH]n2c1=O + NC1CCC(NC2CC2c2ccccc2)CC1
IC50 (second compound 0.1 µM): > 10000 nM
IC50 (second compound 0.316 µM): > 10000 nM
IC50 (second compound 1 µM): > 10000 nM
IC50 (second compound 3.16 µM): > 10000 nM
IC50 (second compound 10 µM): > 10000 nM
viability, T/C [1]: 87.4%
viability, T/C [2]: 89.5%
viability, T/C [3]: 88.8%
viability, T/C [4]: 84.7%
viability, T/C [5]: 79%
viability, T/C [6]: 68.2%
viability, T/C [7]: 84.9%
viability, T/C [8]: 85.5%
viability, T/C [9]: 89.2%
viability, T/C [10]: 78.3%
viability, T/C [11]: 70.9%
viability, T/C [12]: 65%
viability, T/C [13]: 86.3%
viability, T/C [14]: 83.6%
viability, T/C [15]: 89.4%
viability, T/C [16]: 81.7%
viability, T/C [17]: 76.3%
viability, T/C [18]: 62.9%
viability, T/C [19]: 90%
viability, T/C [20]: 86.7%
viability, T/C [21]: 89.1%
viability, T/C [22]: 85.1%
viability, T/C [23]: 74.2%
viability, T/C [24]: 59.6%
viability, T/C [25]: 87.8%
viability, T/C [26]: 84.3%
viability, T/C [27]: 80.7%
viability, T/C [28]: 79.2%
viability, T/C [29]: 66.2%
viability, T/C [30]: 54.5%

CC1COCCN1c1cc(-c2ccnn2C)c2ccnc(-c3ccn[nH]3)c2n1 (stereo not given) + NC1CCC(NC2CC2c2ccccc2)CC1
IC50 (second compound 0.1 µM): < 3.16 nM
IC50 (second compound 0.316 µM): < 3.16 nM
IC50 (second compound 1 µM): < 3.16 nM
IC50 (second compound 3.16 µM): < 3.16 nM
IC50 (second compound 10 µM): < 3.16 nM
viability, T/C [31]: 13.4%
viability, T/C [32]: 12.4%
viability, T/C [1]: 15.4%
viability, T/C [2]: 22.6%
viability, T/C [3]: 21.1%
viability, T/C [4]: 8.33%
viability, T/C [33]: 14.7%
viability, T/C [34]: 18.1%
viability, T/C [7]: 16.6%
viability, T/C [8]: 26.2%
viability, T/C [9]: 26.8%
viability, T/C [10]: 10.4%
viability, T/C [35]: 14.7%
viability, T/C [36]: 14.4%
viability, T/C [13]: 16.7%
viability, T/C [14]: 21.9%
viability, T/C [15]: 27.5%
viability, T/C [16]: 8.96%
viability, T/C [37]: 17.2%
viability, T/C [38]: 15.2%
viability, T/C [19]: 17.5%
viability, T/C [20]: 23.5%
viability, T/C [21]: 28.7%
viability, T/C [22]: 8.47%
viability, T/C [39]: 16.8%
viability, T/C [40]: 16.9%
viability, T/C [25]: 16.7%
viability, T/C [26]: 24.8%
viability, T/C [27]: 29.1%
viability, T/C [28]: 7.2%

CC1COCCN1c1cc(C2(S(C)(=N)=O)CC2)nc(-c2ccnc3[nH]ccc23)n1 (stereo not given) + NC1CCC(NC2CC2c2ccccc2)CC1
IC50 (second compound 0.1 µM): 528 nM
IC50 (second compound 0.316 µM): 505 nM
IC50 (second compound 1 µM): 531 nM
IC50 (second compound 3.16 µM): 500 nM
IC50 (second compound 10 µM): 446 nM
viability, T/C [1]: 104%
viability, T/C [2]: 87.7%
viability, T/C [3]: 76.6%
viability, T/C [4]: 16.5%
viability, T/C [5]: 12.6%
viability, T/C [6]: 16.9%
viability, T/C [7]: 88.7%
viability, T/C [8]: 82.8%
viability, T/C [9]: 71%
viability, T/C [10]: 19.3%
viability, T/C [11]: 13.2%
viability, T/C [12]: 16.1%
viability, T/C [13]: 79.7%
viability, T/C [14]: 90.3%
viability, T/C [15]: 74.7%
viability, T/C [16]: 19.8%
viability, T/C [17]: 12.3%
viability, T/C [18]: 15.3%
viability, T/C [19]: 97.6%
viability, T/C [20]: 93.9%
viability, T/C [21]: 71.5%
viability, T/C [22]: 17.6%
viability, T/C [23]: 11.3%
viability, T/C [24]: 14.8%
viability, T/C [25]: 85%
viability, T/C [26]: 81.6%
viability, T/C [27]: 64.4%
viability, T/C [28]: 16.2%
viability, T/C [29]: 12.3%
viability, T/C [30]: 16.7%

COc1ccc([C@@H](O)c2cc(-c3ncnc4cc(N5CCOCC5)ccc34)c(F)cc2Cl)nn1 + NC1CCC(NC2CC2c2ccccc2)CC1
IC50 (second compound 0.1 µM): 838 nM
IC50 (second compound 0.316 µM): 973 nM
IC50 (second compound 1 µM): 640 nM
IC50 (second compound 3.16 µM): 795 nM
IC50 (second compound 10 µM): 742 nM
viability, T/C [1]: 81.5%
viability, T/C [2]: 80.9%
viability, T/C [3]: 66.5%
viability, T/C [4]: 42.9%
viability, T/C [5]: 38.6%
viability, T/C [6]: 22.7%
viability, T/C [7]: 74.4%
viability, T/C [8]: 72.3%
viability, T/C [9]: 65.3%
viability, T/C [10]: 45%
viability, T/C [11]: 38.8%
viability, T/C [12]: 22.4%
viability, T/C [13]: 77.4%
viability, T/C [14]: 81.8%
viability, T/C [15]: 57.8%
viability, T/C [16]: 42.6%
viability, T/C [17]: 30.9%
viability, T/C [18]: 19.7%
viability, T/C [19]: 80.7%
viability, T/C [20]: 80.7%
viability, T/C [21]: 65%
viability, T/C [22]: 45.8%
viability, T/C [23]: 29.1%
viability, T/C [24]: 19.3%
viability, T/C [25]: 80%
viability, T/C [26]: 79.5%
viability, T/C [27]: 64.5%
viability, T/C [28]: 42.2%
viability, T/C [29]: 30.5%
viability, T/C [30]: 15.4%

Nc1ncn(C2CC(O)C(CO)S2)c(=O)n1 (stereo not given) + NC1CCC(NC2CC2c2ccccc2)CC1
IC50 (second compound 0.1 µM): > 300 nM
IC50 (second compound 0.316 µM): > 300 nM
IC50 (second compound 1 µM): > 300 nM
IC50 (second compound 3.16 µM): > 300 nM
IC50 (second compound 10 µM): > 300 nM
viability, T/C (second compound 0.1 µM, first compound 0.000949 µM): 92.9%
viability, T/C (second compound 0.1 µM, first compound 0.003 µM): 91%
viability, T/C (second compound 0.1 µM, first compound 0.00949 µM): 88.3%
viability, T/C (second compound 0.1 µM, first compound 0.03 µM): 79.8%
viability, T/C (second compound 0.1 µM, first compound 0.0949 µM): 75.6%
viability, T/C (second compound 0.1 µM, first compound 0.3 µM): 57.3%
viability, T/C (second compound 0.316 µM, first compound 0.000949 µM): 95.9%
viability, T/C (second compound 0.316 µM, first compound 0.003 µM): 92.2%
viability, T/C (second compound 0.316 µM, first compound 0.00949 µM): 88.9%
viability, T/C (second compound 0.316 µM, first compound 0.03 µM): 84.6%
viability, T/C (second compound 0.316 µM, first compound 0.0949 µM): 70.3%
viability, T/C (second compound 0.316 µM, first compound 0.3 µM): 51.5%
viability, T/C (second compound 1 µM, first compound 0.000949 µM): 92.5%
viability, T/C (second compound 1 µM, first compound 0.003 µM): 87%
viability, T/C (second compound 1 µM, first compound 0.00949 µM): 93.7%
viability, T/C (second compound 1 µM, first compound 0.03 µM): 82.8%
viability, T/C (second compound 1 µM, first compound 0.0949 µM): 77.8%
viability, T/C (second compound 1 µM, first compound 0.3 µM): 56.5%
viability, T/C (second compound 3.16 µM, first compound 0.000949 µM): 103%
viability, T/C (second compound 3.16 µM, first compound 0.003 µM): 110%
viability, T/C (second compound 3.16 µM, first compound 0.00949 µM): 91.7%
viability, T/C (second compound 3.16 µM, first compound 0.03 µM): 88.1%
viability, T/C (second compound 3.16 µM, first compound 0.0949 µM): 76.6%
viability, T/C (second compound 3.16 µM, first compound 0.3 µM): 52.7%
viability, T/C (second compound 10 µM, first compound 0.000949 µM): 93.6%
viability, T/C (second compound 10 µM, first compound 0.003 µM): 94.9%
viability, T/C (second compound 10 µM, first compound 0.00949 µM): 98%
viability, T/C (second compound 10 µM, first compound 0.03 µM): 82.8%
viability, T/C (second compound 10 µM, first compound 0.0949 µM): 77.4%
viability, T/C (second compound 10 µM, first compound 0.3 µM): 54.9%

O=C(C=Cn1cnc(-c2cc(C(F)(F)F)cc(C(F)(F)F)c2)n1)NNc1cnccn1 + NC1CCC(NC2CC2c2ccccc2)CC1
IC50 (second compound 0.1 µM): < 3.16 nM
IC50 (second compound 0.316 µM): < 3.16 nM
IC50 (second compound 1 µM): < 3.16 nM
IC50 (second compound 3.16 µM): < 3.16 nM
IC50 (second compound 10 µM): < 3.16 nM
viability, T/C [31]: 40.4%
viability, T/C [32]: 42%
viability, T/C [1]: 45.4%
viability, T/C [2]: 35.8%
viability, T/C [3]: 19%
viability, T/C [4]: 14.7%
viability, T/C [33]: 40.8%
viability, T/C [34]: 33.4%
viability, T/C [7]: 52.3%
viability, T/C [8]: 40.6%
viability, T/C [9]: 21.5%
viability, T/C [10]: 16.1%
viability, T/C [35]: 37.7%
viability, T/C [36]: 31.5%
viability, T/C [13]: 52.4%
viability, T/C [14]: 38.4%
viability, T/C [15]: 26.8%
viability, T/C [16]: 17.2%
viability, T/C [37]: 40.2%
viability, T/C [38]: 41.1%
viability, T/C [19]: 36.1%
viability, T/C [20]: 41.5%
viability, T/C [21]: 21.6%
viability, T/C [22]: 17.1%
viability, T/C [39]: 32.2%
viability, T/C [40]: 29.3%
viability, T/C [25]: 35.3%
viability, T/C [26]: 29%
viability, T/C [27]: 24.1%
viability, T/C [28]: 13.3%
